Measured values published in article PMC8333425, “Discovery of a dual Ras and ARF6 inhibitor from a GPCR endocytosis screen” (Nature Communications, 2021).
Values joined by “and” are separate entries in the source; they are usually repeats but may differ in a detail not shown here. Identical values can stand only once. “Also recorded” adds a separate entry of the source.

What was measured:
K-Ras = K-Ras (Homo sapiens, UniProt P01116); test: In vitro mant-GTP exchange assay, purified K-Ras-WT with SOS1; format: biochemical; set-up: GST (N); FLAG (N); host or cells: E. coli BL21; conditions: 50 μM
Sequence of K-Ras (P01116 1-188 isoform P01116-2): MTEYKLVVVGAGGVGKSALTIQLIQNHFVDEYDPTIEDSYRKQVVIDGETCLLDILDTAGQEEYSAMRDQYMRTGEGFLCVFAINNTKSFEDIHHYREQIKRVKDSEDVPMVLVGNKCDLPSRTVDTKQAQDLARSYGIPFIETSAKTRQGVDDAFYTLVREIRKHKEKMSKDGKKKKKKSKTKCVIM
Procedure: Ras activity was assessed in a 384-well black bottom plate using the mant-GTP exchange factor assay that measures the uptake of the fluorescent nucleotide analog N-methylanthraniloyl-GTP (mant-GTP) into GTPases. For Ras activation, 2X exchange buffer, 1.66 μg of purified pGEX-6P-1-H-Ras or pGEX-6P-1-K-Ras-WT or pGEX-6P-1-K-Ras-Y32A were added per well in presence of DMSO, different concentrations of Rasarfin (as indicated) or 50 µM of compounds 21.4, 21.7, or 21.8. Using the Infinite 200 Pro plate reader (Tecan) with filters set at 360 nm and 440 nm for detecting the excitation and emissions, respectively, and temperature set at 20 °C, 5 readings were recorded every 5 s before the addition of either H2O, 40 mM EDTA or 0.66 μg purified SOS1. The fluorescence of mant-GTP uptake was measured every 30 sec for 30 min and quantified as the delta relative fluorescence units (RFU), which was calculated as the RFU post-addition minus the 5 averaged RFU pre-addition, per condition.

A549 cells = test: Cell proliferation assay (IncuCyte confluence), A549; format: cell-based, human; conditions: for cell confluence (proliferation) / proliferation (confluence): listed as Rasarfin
Procedure: Cell proliferation was measured by a label-free, non-invasive cellular confluence assay using IncuCyte Live-Cell Imaging Systems (Essen Bioscience, Ann Arbor, MI, USA). MDA-MB-231 breast cancer and A549 lung carcinomas cells (1500 cells in 150 μl/well) were seeded overnight on a clear 96-well plate. Twenty-four hours later, the cells were treated with 0.1% DMSO, or different concentrations of Rasarfin (as indicated), or 10 µM of 21.4 or 21.8 for 96 h total. The plate was placed in an XL-3 incubation chamber maintained at 37 °C and the cells were photographed using a ×4 objective, every 3 h for 4 days. Cell confluence was calculated using IncuCyte S3 software (2019A) and cell proliferation was expressed as an increase in the percentage of confluence. Experiments were done in triplicate and repeated three times.

β-arrestin2 = test: Confocal microscopy of β-arrestin2-YFP trafficking with B2R; format: cell-based, human; conditions: 50 μM; BK
Procedure: One day before transfection, cells were seeded in 35-mm glass-bottom dishes (MatTek Corporation) at a density of 1 × 10^5 cells per dish. For the recordings of receptor internalization, HEK293 SL cells were transfected with 2 μg of AT1R-YFP. For the recordings of β-arrestin-2 recruitment to the receptor, HEK293SL cells were transfected with 50 ng of β-arrestin2-YFP and 250 ng of Flag-AT1R or HA-B2R. Forty-eight hours post-transfection, cells were serum starved, preincubated with DMSO (0.1% final concentration) or Rasarfin (50 μM) for 30 min at 37 °C. AT1R-expressing cells were stimulated with angiotensinII (AngII; 100 nM) and B2R-expressing cells were stimulated with bradykinin (BK; 1 μM) for 30 min (receptor-YFP) or 15 min (β-arrestin2-YFP). Cells were imaged with Zeiss LSM-510 and/or LSM-710 laser scanning confocal microscope. To detect YFP, […] and BP 505–550 nm emission filter. Images (2048 × 2048) were collected using a 63x oil immersion lens.

SMILES: CC(C)C(=O)N1CCN(c2ccc(NC(=O)c3cc4ccccc4o3)cc2Cl)CC1 [Compound 21]
- SOS-mediated mant-GTP binding onto purified K-Ras (K-Ras): inhibited the SOS-mediated mant-GTP binding
- cell confluence (proliferation) (A549 cells; 0.5μM, 18 hr): 9.332 and 9.3043 and 10.3515
- proliferation (confluence) (A549 cells; 0.5μM, 18 hr): 24.4895 and 24.566 and 18.9209
- cell confluence (proliferation) (A549 cells; 0.5μM, 21 hr): 10.4726 and 10.4517 and 11.0087
- proliferation (confluence) (A549 cells; 0.5μM, 21 hr): 27.1666 and 26.6886 and 21.2647
- cell confluence (proliferation) (A549 cells; 0.5μM, 24 hr): 10.2389 and 10.6946 and 11.5243
- proliferation (confluence) (A549 cells; 0.5μM, 24 hr): 32.6256 and 30.048 and 24.569
- cell confluence (proliferation) (A549 cells; 0.5μM, 27 hr): 10.805 and 11.0634 and 12.4799
- proliferation (confluence) (A549 cells; 0.5μM, 27 hr): 37.2681 and 34.654 and 21.9145
- cell confluence (proliferation) (A549 cells; 0.5μM, 30 hr): 11.9152 and 12.485 and 12.9764
- proliferation (confluence) (A549 cells; 0.5μM, 30 hr): 41.4109 and 39.7044 and 23.7331
- cell confluence (proliferation) (A549 cells; 0.5μM, 33 hr): 12.3634 and 12.541 and 13.8499
- proliferation (confluence) (A549 cells; 0.5μM, 33 hr): 46.0502 and 43.4249 and 28.4554
- proliferation (confluence) (A549 cells; 0.5μM, 36 hr): 51.8492 and 49.6782 and 33.7864
- proliferation (confluence) (A549 cells; 0.5μM, 39 hr): 59.4007 and 56.0507
- cell confluence (proliferation) (A549 cells; 1μM, 18 hr): 8.679 and 9.302 and 9.424
- proliferation (confluence) (A549 cells; 1μM, 18 hr): 19.1081 and 18.3715 and 26.7974
- cell confluence (proliferation) (A549 cells; 1μM, 21 hr): 9.1 and 10.4023 and 9.667
- proliferation (confluence) (A549 cells; 1μM, 21 hr): 21.9794 and 20.7173 and 31.1317
- cell confluence (proliferation) (A549 cells; 1μM, 24 hr): 9.619 and 10.4616 and 10.6323
- proliferation (confluence) (A549 cells; 1μM, 24 hr): 24.7962 and 23.1147 and 35.367
- cell confluence (proliferation) (A549 cells; 1μM, 27 hr): 10.2207 and 11.0837 and 11.4063
- proliferation (confluence) (A549 cells; 1μM, 27 hr): 28.2759 and 21.7311 and 40.5461
- cell confluence (proliferation) (A549 cells; 1μM, 30 hr): 12.7027 and 12.0976 and 12.1684
- proliferation (confluence) (A549 cells; 1μM, 30 hr): 31.8721 and 23.9788 and 46.1337
- cell confluence (proliferation) (A549 cells; 1μM, 33 hr): 12.8101 and 12.4309 and 12.7886
- proliferation (confluence) (A549 cells; 1μM, 33 hr): 35.7112 and 29.1451 and 51.7711
- cell confluence (proliferation) (A549 cells; 1μM, 36 hr): 13.5305
- proliferation (confluence) (A549 cells; 1μM, 36 hr): 39.6717 and 33.6517 and 60.1281
- proliferation (confluence) (A549 cells; 1μM, 39 hr): 47.4848 and 40.2179
- cell confluence (proliferation) (A549 cells; 2μM, 18 hr): 9.332 and 13.0386 and 10.4059
- proliferation (confluence) (A549 cells; 2μM, 18 hr): 23.9116 and 20.6158 and 17.6553
- cell confluence (proliferation) (A549 cells; 2μM, 21 hr): 10.4726 and 14.2716 and 10.9627
- proliferation (confluence) (A549 cells; 2μM, 21 hr): 27.3499 and 22.7836 and 20.9361
- cell confluence (proliferation) (A549 cells; 2μM, 24 hr): 10.2389 and 15.0053 and 11.5919
- proliferation (confluence) (A549 cells; 2μM, 24 hr): 32.3505 and 25.0274 and 22.3969
- cell confluence (proliferation) (A549 cells; 2μM, 27 hr): 10.805 and 15.8245 and 11.5779
- proliferation (confluence) (A549 cells; 2μM, 27 hr): 36.576 and 29.0777 and 20.6023
- cell confluence (proliferation) (A549 cells; 2μM, 30 hr): 11.9152 and 18.2698 and 12.1995
- proliferation (confluence) (A549 cells; 2μM, 30 hr): 40.8806 and 32.6797 and 23.0649
- cell confluence (proliferation) (A549 cells; 2μM, 33 hr): 12.3634 and 18.789 and 13.0531
- proliferation (confluence) (A549 cells; 2μM, 33 hr): 45.6439 and 35.4748 and 28.9537
- cell confluence (proliferation) (A549 cells; 2μM, 36 hr): 12.4389 and 19.3831 and 13.6426
- proliferation (confluence) (A549 cells; 2μM, 36 hr): 52.1825 and 39.835 and 32.0484
- proliferation (confluence) (A549 cells; 2μM, 39 hr): 61.5258 and 48.4257 and 38.4343
- cell confluence (proliferation) (A549 cells; 5μM, 18 hr): 10.0859 and 8.906 and 10.6663
- proliferation (confluence) (A549 cells; 5μM, 18 hr): 17.9959 and 26.9316 and 16.8915
- cell confluence (proliferation) (A549 cells; 5μM, 21 hr): 10.2266 and 10.3015 and 11.0904
- proliferation (confluence) (A549 cells; 5μM, 21 hr): 19.5572 and 26.3286 and 18.8493
- cell confluence (proliferation) (A549 cells; 5μM, 24 hr): 11.4115 and 9.856 and 11.3241
- proliferation (confluence) (A549 cells; 5μM, 24 hr): 21.409 and 27.1851 and 17.4154
- cell confluence (proliferation) (A549 cells; 5μM, 27 hr): 11.7245 and 10.4475 and 12.7275
- proliferation (confluence) (A549 cells; 5μM, 27 hr): 22.045 and 28.0966 and 15.1402
- cell confluence (proliferation) (A549 cells; 5μM, 30 hr): 12.7699 and 11.1958 and 12.4012
- cell confluence (proliferation) (A549 cells; 5μM, 33 hr): 12.6309 and 11.193 and 12.7637
- proliferation (confluence) (A549 cells; 5μM, 33 hr): 25.4457 and 25.9951 and 18.0713
- cell confluence (proliferation) (A549 cells; 5μM, 36 hr): 13.1014 and 11.8184 and 13.4133
- proliferation (confluence) (A549 cells; 5μM, 36 hr): 26.9015 and 24.9434 and 20.5372
- proliferation (confluence) (A549 cells; 5μM, 39 hr): 29.6606 and 26.9243 and 22.5988
- cell confluence (proliferation) (A549 cells; 10μM, 18 hr): 8.409 and 7.2062 and 9.084
- proliferation (confluence) (A549 cells; 10μM, 18 hr): 10.5387 and 14.905 and 7.973
- cell confluence (proliferation) (A549 cells; 10μM, 21 hr): 8.837 and 8.143 and 9.362
- proliferation (confluence) (A549 cells; 10μM, 21 hr): 10.701 and 14.8102 and 7.904
- cell confluence (proliferation) (A549 cells; 10μM, 24 hr): 9.479 and 8.1046 and 9.485
- proliferation (confluence) (A549 cells; 10μM, 24 hr): 11.1918 and 15.0497 and 7.616
- cell confluence (proliferation) (A549 cells; 10μM, 27 hr): 9.816 and 8.066 and 10.344
- cell confluence (proliferation) (A549 cells; 10μM, 30 hr): 10.3507 and 8.537 and 10.5983
- cell confluence (proliferation) (A549 cells; 10μM, 33 hr): 10.1924 and 8.993 and 10.9238
- cell confluence (proliferation) (A549 cells; 10μM, 36 hr): 10.249 and 9.152 and 11.0645
- A549 cell growth (confluency) (A549 cells; 5 and 10 µM of Rasarfin): efficiently blocks proliferation; also recorded: efficient A549 cell growth inhibition
- β-arrestin trafficking with B2R into endosomes (microscopy) (β-arrestin2): prevented β-arrestins’ trafficking with receptors into endosomes
